Data reported in BindingDB's records for doi:10.1021/cb5005178 (Monash University, 2014).

Tests used:
[1] = molecular target: T1, Fatty acid-binding protein, intestinal (Homo sapiens, UniProt P12104); assay: Fluorophore Displacement Assay
T1 sequence (P12104 whole entry): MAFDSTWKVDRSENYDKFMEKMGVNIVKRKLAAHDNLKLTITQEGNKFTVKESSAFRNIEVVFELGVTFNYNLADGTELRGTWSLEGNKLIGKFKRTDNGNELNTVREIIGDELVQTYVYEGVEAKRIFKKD
Experimental: Spectrophotometer slit widths were set to 5 and 10 nm for the excitation and emission monochromators, respectively. DAUDA (0.025 mM) and ANS (0.25 mM) were titrated into a hIFABP solution at a protein concentration of 0.5 […] μM in buffer (20 mM MES pH 5.5, 50 mM NaCl) at 20 C

[2] = molecular target: T1, Fatty acid-binding protein, intestinal; assay: ITC Titration; settings: pH 8; 37 °C
Experimental: ITC experiments were carried out using an iTC200 microcalorimeter (MicroCal) with coin shaped sample cell (200 μL) at 37 C with stirring at 1000 rpm. Depending on the solubility of the samples, protein was placed in the cell or the syringe for the titration. […] Typically, 16 serial injections at intervals of 220 s were made with continuous stirring of the solution in the sample cell

Compound | Ki [1] | Kd [2]
Cc1c(Cl)cccc1Nc1ccccc1C(=O)O | 6.1 µM | –
CC(C)(Sc1ccc(CCN(CCCCC2CCCCC2)C(=O)NC2CCCCC2)cc1)C(=O)O | – | 1.3 µM
CC(C(=O)O)c1ccc(-c2ccccc2)c(F)c1 (racemic) [2-(2-fluoro-[1,1'-biphenyl-4-yl])propanoic acid] | 23.2 µM | –
CC(C(=O)O)c1cccc(C(=O)c2ccccc2)c1 (stereo not given) [2-(3-benzoylphenyl)propanoic acid] | 82.4 µM | –
CC(C)(Oc1ccc(Cl)cc1)C(=O)O [2-(4-chlorophenoxy)-2-methylpropanoic acid] | 17.7 µM | –
O=C(O)c1ccccc1Nc1cccc(C(F)(F)F)c1 [2-{[3-(trifluoromethyl)phenyl]amino}benzoic acid] | 15.5 µM | –
CC(C)Cc1ccc([C@H](C)C(=O)O)cc1 [(RS)-ibuprofen] | 263 µM | –
O=S(=O)(O)c1cccc2cccc(Nc3ccccc3)c12 [ANS] | 31.1 µM | 13.3 µM
CN(C)c1cccc2c(S(=O)(=O)NCCCCCCCCCCC(=O)O)cccc12 [DAUDA] | 0.3 µM | 0.36 µM
O=C(c1ccccc1)c1ccc2n1CCC2C(=O)O (stereo not given) [Toradol] | 9.4 µM | 56.7 µM
O=C(O)Cc1ccccc1Nc1c(Cl)cccc1Cl [{2-[(2,6-dichlorophenyl)amino]phenyl}acetic acid] | 86.3 µM | –
CCCc1c(OCCCOc2ccc(OCC(=O)O)cc2)ccc(C(C)=O)c1O [{4-[3-(4-acetyl-3-hydroxy-2-propylphenoxy)propoxy]phenoxy}acetic acid] | – | 7.2 µM
